US20030069285A1 (Recordati Ireland Limited, priority 2001, published 2003)

How the values were obtained:
[1] = tested on: isolated rat aorta; settings: in vitro; even after the drug has been removed from the environment of the aortic tissue for 6 hours; cited from earlier work
[2] = Thermogravimetric analysis (TG and TGFTIR); type: physicochemical; settings: heated in nitrogen stream at 10° C./min; only CO2 is present
Method: Each sample weighing 2 to 5 mg was placed in an aluminum crucible of an apparatus PERKIN ELMER TGS-2 Thermogravimetric System (Perkin-Elmer International, Inc., Rotkreuz, Switzerland) and heated in nitrogen stream at a rate of 10° C./min. The thermogravimetric analysis together with an IR analysis in Fourier transform was carried out according to the following operating modes. Each sample weighing 2 to 5 mg was placed in an aluminum crucible of an apparatus Netzsch Thermomicrobalance TG209 (Netzsch Gerätebau, Seib, Germany) coupled with a spectrometer in Fourier transform BRUKER FTIR Vector 22 (Spectrospin, Fällanden, Switzerland) and heated in nitrogen stream at a rate of 10° C./min.

Row | temperature above which degradation was observed [2] | Compound | isolated rat aorta response to high K+ [1]
1 |  | COC(=O)C1=C(C)NC(C)=C(C(=O)OC(C)(C)CN(C)CCC(c2ccccc2)c2ccccc2)C1c1cccc([N+](=O)[O-])c1 (centres unmarked) [Lercanidipine, methyl 1,1,N-trimethyl-N-(3,3-diphenylpropyl)-2-aminoethyl 1,4-dihydro-2,6-dimethyl-4-(3-nitrophenyl)pyridine-3,5-dicarboxylate] | attenuated
2 | above 180 °C | lercanidipine hydrochloride-terbutyl methyl ether | 
